Values of other authors in patent US20120141611A1, “METHODS AND COMPOSITIONS USING ERGOTHIONEINE TO TREAT A VARIETY OF HEALTH RELATED FACTORS” (Oxis International Inc., priority 2010, published 2012).

Tests used:
intestinal polyps = settings: mouse, in vivo; cited from earlier work
[1] = people taking vitamin C supplements, 1,032 subjects; cited from earlier work
[2] = single elderly person, stable seven years later; cited from earlier work
[3] = 537 osteoarthritis patients, after 27 weeks; cited from earlier work

COc1cc(/C=C/C(=O)CC(=O)/C=C/c2ccc(O)c(OC)c2)ccc1O [curcumin]
Reduction of intestinal polyps (intestinal polyps): 75%

O=C1O[C@H]([C@@H](O)CO)C(O)=C1O [vitamin C]
Reduced likelihood of developing osteoarthritis in the knee [1]: 11%

Cyanocobalamin [vitamin B12]
Dementia outcome [2]: their dementia disappeared

hyaluronic acid
Joint pain [3]: significantly reduce joint pain while resting and while walking
